For orientation: AC50 means the concentration at which the activity in the assay is half-maximal.

Where only a bound is given, the exact number is not on record here.

For the experiment, the target named is T1, human PAH with the R408W mutation (Homo sapiens, UniProt P00439, R408W).
T1 construct: expressed in transfected cells
T1 sequence (P00439 1-452 R408W): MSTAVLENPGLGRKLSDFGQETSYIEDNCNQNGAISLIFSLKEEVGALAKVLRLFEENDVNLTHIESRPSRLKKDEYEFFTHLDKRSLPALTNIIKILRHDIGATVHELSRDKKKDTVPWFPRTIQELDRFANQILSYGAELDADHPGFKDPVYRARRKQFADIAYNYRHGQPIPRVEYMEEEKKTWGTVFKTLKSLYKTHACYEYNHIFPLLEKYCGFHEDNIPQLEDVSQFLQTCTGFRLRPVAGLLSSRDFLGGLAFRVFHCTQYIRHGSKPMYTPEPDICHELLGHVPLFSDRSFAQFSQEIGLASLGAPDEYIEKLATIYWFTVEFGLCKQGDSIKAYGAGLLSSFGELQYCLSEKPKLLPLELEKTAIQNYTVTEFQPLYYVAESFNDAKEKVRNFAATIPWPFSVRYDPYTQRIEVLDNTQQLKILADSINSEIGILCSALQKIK
Put plainly: Cell Based Phenylalanine Flux Assay.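 Further: Ten-point dose curve from 2-fold serial dilutions, run in duplicate at 0.5% DMSO final, tracer step used 20 µM sepiapterin and 800 µM labeled phenylalanine.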 The following applies: A375 cells expressing human R408W PAH; 24 hrs compound incubation; 13C-Tyrosine by LC-MS; average where tested multiple times; read-out: AC50.
On to `Cc1cccc2cc([C@H]3c4nc[nH]c4CCN3C(=O)c3nnc(-c4ccccn4)o3)nn12` [Example 799, (R)-(4-(7-methylpyrazolo [1,5-a]pyridin-2-yl)-6,7-dihydro-1H-imidazo[4,5-c]pyridin-5(4H)-yl)(5-(pyridin-2-yl)-1,3,4-oxadiazol-2-yl) methanone], for which the half-maximal activity concentration (AC50) was above 5000 nM.

Regarding `Cc1cccc2cc([C@@H]3c4nc[nH]c4CCN3C(=O)c3nnc(-c4cnn(C)c4)o3)nn12` [Example 800, (S)-(5-(1-methyl-1H-pyrazol-4-yl)-1,3,4-oxadiazol-2-yl)(4-(7-methylpyrazolo[1,5-a]pyridin-2-yl)-6,7-dihydro-1H-imidazo[4,5-c]pyridin-5(4H)-yl)methanone], the AC50 lay within 500 to 1000 nM.

As to `Cc1cccc2cc([C@@H]3c4nc[nH]c4CCN3C(=O)c3nnc(-c4ccn(C)n4)o3)nn12` [Example 802, (S)-(5-(1-methyl-1H-pyrazol-3-yl)-1,3,4-oxadiazol-2-yl)(4-(7-methylpyrazolo[1,5-a]pyridin-2-yl)-6,7-dihydro-1H-imidazo[4,5-c]pyridin-5(4H)-yl)methanone], the AC50 was below 500 nM.

On to `Cc1ccc2cc([C@@H]3c4nc[nH]c4CCN3C(=O)c3oc(C(C)(C)O)nc3C(F)F)nn2c1` [Example 804], for which the AC50 was below 500 nM.

For `Cc1cccn2nc([C@@H]3c4nc[nH]c4CCN3C(=O)c3nnc(-c4cn(C)cn4)o3)cc12` [Example 806, (S)-(5-(1-methyl-1H-imidazol-4-yl)-1,3,4-oxadiazol-2-yl)(4-(4-methylpyrazolo[1,5-a]pyridin-2-yl)-6,7-dihydro-1H-imidazo[4,5-c]pyridin-5(4H)-yl)methanone], the half-maximal activity concentration (AC50) lay within 500 to 1000 nM.

For the compound `O=C(c1nnc(-c2ccccn2)o1)N1CCc2[nH]cnc2[C@H]1c1cc2c(C(F)(F)F)cccn2n1` [Example 826, (S)-(5-(pyridin-2-yl)-1,3,4-oxadiazol-2-yl)(4-(4-(trifluoromethyl)pyrazolo [1,5-a]pyridin-2-yl)-6,7-dihydro-1H-imidazo[4,5-c]pyridin-5(4H)-yl)methanone], the half-maximal activity concentration (AC50) was below 500 nM.

With `O=C(c1nnc(-c2ccccn2)o1)N1CCc2[nH]cnc2[C@@H]1c1cc2c(C(F)(F)F)cccn2n1` [Example 827, (R)-(5-(pyridin-2-yl)-1,3,4-oxadiazol-2-yl)(4-(4-(trifluoromethyl)pyrazolo [1,5-a]pyridin-2-yl)-6,7-dihydro-1H-imidazo[4,5-c]pyridin-5(4H)-yl)methanone], the half-maximal activity concentration (AC50) was above 5000 nM.

As for `O=C(c1nnc(-c2cnn(C3CCC3)c2)o1)N1CCc2[nH]cnc2[C@@H]1c1cc2c(F)cccn2n1` [Example 833, (R)-(5-(1-cyclobutyl-1H-pyrazol-4-yl)-1,3,4-oxadiazol-2-yl)(4-(4-fluoropyrazolo[1,5-a]pyridin-2-yl)-6,7-dihydro-1H-imidazo [4,5-c]pyridin-5(4H)-yl) methanone], the AC50 is above 5000 nM.

With `Cc1cccn2nc([C@H]3c4nc[nH]c4CCN3C(=O)c3ncnn3C)cc12` [Example 839, (R)-(1-methyl-1H-1,2,4-triazol-5-yl)(4-(4-methylpyrazolo[1,5-a]pyridin-2-yl)-6,7-dihydro-1H-imidazo[4,5-c]pyridin-5(4H)-yl)methanone], the AC50 lay within 1000 to 5000 nM.

Take `O=C(c1ccnn1C1CC1)N1CCc2[nH]cnc2[C@H]1c1cc2c(F)cccn2n1` [Example 848, (S)-(1-cyclopropyl-1H-pyrazol-5-yl)(4-(4-fluoropyrazolo[1,5-a]pyridin-2-yl)-6,7-dihydro-1H-imidazo[4,5-c]pyridin-5(4H)-yl)methanone]: the concentration at half-maximal activity (AC50) is below 500 nM.

For the compound `Cc1cccn2nc([C@@H]3c4nc[nH]c4CCN3C(=O)c3cc(C(F)F)nn3C)cc12` [Example 867, (S)-(3-(difluoromethyl)-1-methyl-1H-pyrazol-5-yl)(4-(4-methylpyrazolo[1,5-a]pyridin-2-yl)-6,7-dihydro-1H-imidazo[4,5-c]pyridin-5(4H)-yl)methanone], the AC50 is below 500 nM.

As for `Cc1cccn2nc([C@H]3c4nc[nH]c4CCN3C(=O)c3nnc(-c4ccc(F)cn4)o3)cc12` [Example 874, (R)-(5-(5-fluoropyridin-2-yl)-1,3,4-oxadiazol-2-yl)(4-(4-methylpyrazolo[1,5-a]pyridin-2-yl)-6,7-dihydro-1H-imidazo[4,5-c]pyridin-5(4H)-yl)methanone], the concentration at half-maximal activity (AC50) was above 5000 nM.

As for `Cc1cc(-c2nnc(C(=O)N3CCc4[nH]cnc4[C@H]3c3cc4c(F)cccn4n3)o2)nn1C` [Example 883, (S)-(5-(1,5-dimethyl-1H-pyrazol-3-yl)-1,3,4-oxadiazol-2-yl)(4-(4-fluoropyrazolo[1,5-a]pyridin-2-yl)-6,7-dihydro-1H-imidazo[4,5-c]pyridin-5(4H)-yl)methanone], the AC50 was below 500 nM.

Take `Cc1cccn2nc([C@@H]3c4nc[nH]c4CCN3C(=O)c3nnc(-c4cccnc4)o3)cc12` [Example 894, (S)-(4-(4-methylpyrazolo [1,5-a]pyridin-2-yl)-6,7-dihydro-1H-imidazo[4,5-c]pyridin-5(4H)-yl)(5-(pyridin-3-yl)-1,3,4-oxadiazol-2-yl) methanone]: the AC50 is below 500 nM.

On to `Cc1cccc2cc([C@@H]3c4nc[nH]c4CCN3C(=O)c3nnc(-c4ncccc4F)o3)nn12` [Example 912, (S)-(5-(3-fluoropyridin-2-yl)-1,3,4-oxadiazol-2-yl)(4-(7-methylpyrazolo[1,5-a]pyridin-2-yl)-6,7-dihydro-1H-imidazo[4,5-c]pyridin-5(4H)-yl)methanone], for which the AC50 is below 500 nM.

Regarding `Cc1cccc2cc([C@H]3c4nc[nH]c4CCN3C(=O)c3nnc(-c4cnn(C(F)F)c4)o3)nn12` [Example 915, (R)-(5-(1-(difluoromethyl)-1H-pyrazol-4-yl)-1,3,4-oxadiazol-2-yl)(4-(7-methylpyrazolo[1,5-a]pyridin-2-yl)-6,7-dihydro-1H-imidazo[4,5-c]pyridin-5(4H)-yl)methanone], the half-maximal activity concentration (AC50) was above 5000 nM.

As to `Cc1cccn2nc([C@H]3c4nc[nH]c4CCN3C(=O)c3nnc(C4CC4)o3)cc12` [Example 925, (R)-(5-cyclopropyl-1,3,4-oxadiazol-2-yl)(4-(4-methylpyrazolo[1,5-a]pyridin-2-yl)-6,7-dihydro-1H-imidazo[4,5-c]pyridin-5(4H)-yl)methanone], the half-maximal activity concentration (AC50) was above 5000 nM.

Consider `Cc1cccc2cc([C@H]3c4nc[nH]c4CCN3C(=O)c3nnc(C(C)(C)F)o3)nn12` [Example 939, (R)-(5-(2-fluoropropan-2-yl)-1,3,4-oxadiazol-2-yl)(4-(7-methylpyrazolo[1,5-a]pyridin-2-yl)-6,7-dihydro-1H-imidazo[4,5-c]pyridin-5(4H)-yl)methanone], for which the AC50 was above 5000 nM.

As for `O=C(c1ocnc1C(F)F)N1CCc2[nH]cnc2[C@H]1c1cc2cccc(Cl)n2n1` [Example 958, (S)-(4-(7-chloropyrazolo [1,5-a]pyridin-2-yl)-6,7-dihydro-1H-imidazo[4,5-c]pyridin-5(4H)-yl)(4-(difluoromethyl)oxazol-5-yl)methanone], the AC50 was below 500 nM.

Regarding `O=C(c1nnc(-c2cnccn2)o1)N1CCc2[nH]cnc2[C@H]1c1cc2c(F)cccn2n1` [Example 962, (S)-(4-(4-fluoropyrazolo[1,5-a]pyridin-2-yl)-6,7-dihydro-1H-imidazo[4,5-c]pyridin-5(4H)-yl)(5-(pyrazin-2-yl)-1,3,4-oxadiazol-2-yl)methanone], the AC50 was below 500 nM.

(Values after US12673961B2 (Agios Pharmaceuticals, Inc., priority 2022, dated 2026).)
